The values that follow come from article PMC8162404, “Proteomimetic surface fragments distinguish targets by function” (Chemical Science, 2020).

Assay in all cases: Pull-down assay with immobilized protein and LSM libraries
One test has as its target T1, CaM (Bos taurus, UniProt P62157).
T1 construct: made in house; host or cells: E. coli BL21 (DE3)
Type of test: binding, bovine. As to conditions: H12 library; 1:2 stoichiometry assumed; read-out: Surface mapping KD (apparent). An outline of the steps:
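His-tagged protein immobilized on Co-NTA resin, equilibrated 30 min at room temperature with LSM sublibraries (64 members, […]), equimolar protein to total probe. CaM buffer: 20 mM HEPES pH 7.4, 150 mM NaCl, 5 mM CaCl2. Bound fractions from HPLC-MS loss of unbound probe versus protein-free resin control; Kd derived.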

In a further test the target is T2, S100A4 (Homo sapiens, UniProt P26447).
T2 construct: made in house; host or cells: Escherichia coli BL21(DE3)
It counts as binding. As to conditions: H12 library; 1:1 binding assumed; read-out: Surface mapping KD (apparent). An outline of the steps: (§1)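 Buffers were HEPES pH 7.4 with 150 mM NaCl, plus 1 mM TCEP and 1 mM CaCl2 (50 mM HEPES) for S100A4 and S100B, 1 mM TCEP for Gal-1, and no additive for RecQ-WH. Immobilized protein at 64 µM was equilibrated 30 min with the LSM sublibrary, and unbound probes were measured by LC-MS.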

The target of another test is T3, S100B (Homo sapiens, UniProt P04271).
T3 construct: made in house; host or cells: Escherichia coli BL21(DE3)
T3 sequence (P04271 1-92): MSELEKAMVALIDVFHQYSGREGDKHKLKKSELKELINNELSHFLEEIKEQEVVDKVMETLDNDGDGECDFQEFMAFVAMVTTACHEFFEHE
Type of test: binding. As to conditions: H12 library; 1:1 binding assumed; read-out: Surface mapping KD (apparent). Summed up: as §1

The target in a further test is T4, Gal-1 (Homo sapiens, UniProt P09382).
T4 construct: made in house; host or cells: E. coli BL21(DE3)
Type of test: binding. As to conditions: H12 library; 1:1 binding assumed; read-out: Surface mapping KD (apparent). An outline of the steps:
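His-tagged protein immobilized on Co-NTA resin (64 µM) in 20 mM HEPES pH 7.4, 150 mM NaCl, equilibrated 30 min at room temperature with foldamer LSM sublibraries at equimolar total concentration. Unbound fractions quantified by HPLC-MS versus protein-free resin control; apparent KD assumes 1:1 binding.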

T4 sequence (P09382 whole entry): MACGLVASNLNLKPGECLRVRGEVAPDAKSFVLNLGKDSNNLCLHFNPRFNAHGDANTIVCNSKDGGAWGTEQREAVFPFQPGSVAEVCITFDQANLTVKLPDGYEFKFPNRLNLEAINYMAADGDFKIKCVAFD
T2 sequence (P26447 whole entry): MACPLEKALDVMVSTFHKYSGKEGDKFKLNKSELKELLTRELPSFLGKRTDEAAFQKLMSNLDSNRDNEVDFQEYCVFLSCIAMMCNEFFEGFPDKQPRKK

As to `CC(C)C[C@@H](CC(=O)N[C@H]1CCC[C@@H]1C(=O)N[C@H]1CCC[C@@H]1C(=O)N[C@H](CC(=O)N[C@H]1CCC[C@@H]1C(=O)N[C@H]1CCC[C@@H]1C(N)=O)Cc1ccc(O)cc1)NC(=O)[C@H]1CCC[C@@H]1NC(=O)[C@H]1CCC[C@@H]1N` [H12 LY], the Kd on CaM stood at 28 µM; at S100A4, 100 µM; at S100B, 56 µM; on Gal-1, 347 µM.

Take `CC(C)[C@@H](CC(=O)N[C@H]1CCC[C@@H]1C(=O)N[C@H]1CCC[C@@H]1C(=O)N[C@H](CC(=O)N[C@H]1CCC[C@@H]1C(=O)N[C@H]1CCC[C@@H]1C(N)=O)Cc1ccccc1)NC(=O)[C@H]1CCC[C@@H]1NC(=O)[C@H]1CCC[C@@H]1N` [H12 VF]: the Kd was 128 µM on CaM, 95 µM at S100A4, 45 µM on S100B and 388 µM at Gal-1.

As to `CC[C@H](C)[C@@H](CC(=O)N[C@H]1CCC[C@@H]1C(=O)N[C@H]1CCC[C@@H]1C(N)=O)NC(=O)[C@H]1CCC[C@@H]1NC(=O)[C@H]1CCC[C@@H]1NC(=O)C[C@H](CC(C)C)NC(=O)[C@H]1CCC[C@@H]1NC(=O)[C@H]1CCC[C@@H]1N` [H12 LI], the Kd at CaM stood at 67 µM; at S100A4, 143 µM; on S100B, 37 µM; on Gal-1 it was 415 µM.

Take `N=C(N)NCCC[C@@H](CC(=O)N[C@H]1CCC[C@@H]1C(=O)N[C@H]1CCC[C@@H]1C(=O)N[C@H](CC(=O)N[C@H]1CCC[C@@H]1C(=O)N[C@H]1CCC[C@@H]1C(N)=O)Cc1ccccc1)NC(=O)[C@H]1CCC[C@@H]1NC(=O)[C@H]1CCC[C@@H]1N` [H12 RF]: the Kd at CaM worked out at 96 µM; on S100A4, 140 µM; on S100B, 40 µM; at Gal-1, 202 µM.

On to `CC(C)[C@@H](CC(=O)N[C@H]1CCC[C@@H]1C(=O)N[C@H]1CCC[C@@H]1C(N)=O)NC(=O)[C@H]1CCC[C@@H]1NC(=O)[C@H]1CCC[C@@H]1NC(=O)C[C@H](Cc1ccccc1)NC(=O)[C@H]1CCC[C@@H]1NC(=O)[C@H]1CCC[C@@H]1N` [H12 FV], for which the Kd on CaM was found to be 157 µM; at S100A4 it was 207 µM; at S100B, 46 µM; on Gal-1 it was 170 µM.

As for `N=C(N)NCCC[C@@H](CC(=O)N[C@H]1CCC[C@@H]1C(=O)N[C@H]1CCC[C@@H]1C(=O)N[C@H](CC(=O)N[C@H]1CCC[C@@H]1C(=O)N[C@H]1CCC[C@@H]1C(N)=O)Cc1c[nH]c2ccccc12)NC(=O)[C@H]1CCC[C@@H]1NC(=O)[C@H]1CCC[C@@H]1N` [H12 RW], the Kd at CaM stood at 19 µM; at S100A4, 95 µM; at S100B, 25 µM; on Gal-1, 126 µM.

For the molecule `CC[C@H](C)[C@@H](CC(=O)N[C@H]1CCC[C@@H]1C(=O)N[C@H]1CCC[C@@H]1C(=O)N[C@H](CC(=O)N[C@H]1CCC[C@@H]1C(=O)N[C@H]1CCC[C@@H]1C(N)=O)C(C)C)NC(=O)[C@H]1CCC[C@@H]1NC(=O)[C@H]1CCC[C@@H]1N` [H12 IV], the Kd came to 270 µM at CaM, 373 µM on S100A4, 57 µM on S100B and 463 µM at Gal-1.

As for `CC[C@H](C)[C@@H](CC(=O)N[C@H]1CCC[C@@H]1C(=O)N[C@H]1CCC[C@@H]1C(N)=O)NC(=O)[C@H]1CCC[C@@H]1NC(=O)[C@H]1CCC[C@@H]1NC(=O)C[C@H](CCSC)NC(=O)[C@H]1CCC[C@@H]1NC(=O)[C@H]1CCC[C@@H]1N` [H12 MI], the Kd at CaM came to 101 µM; on S100A4, 358 µM; on S100B, 54 µM; on Gal-1, 281 µM.

As to `NC(=O)[C@H]1CCC[C@@H]1NC(=O)[C@H]1CCC[C@@H]1NC(=O)C[C@H](Cc1c[nH]c2ccccc12)NC(=O)[C@H]1CCC[C@@H]1NC(=O)[C@H]1CCC[C@@H]1NC(=O)C[C@H](Cc1c[nH]c2ccccc12)NC(=O)[C@H]1CCC[C@@H]1NC(=O)[C@H]1CCC[C@@H]1N` [H12 WW], the Kd on CaM was found to be 413 µM; on S100A4, 56 µM; on S100B it was 8 µM; at Gal-1, 151 µM.

Take `NCCCC[C@@H](CC(=O)N[C@H]1CCC[C@@H]1C(=O)N[C@H]1CCC[C@@H]1C(=O)N[C@H](CC(=O)N[C@H]1CCC[C@@H]1C(=O)N[C@H]1CCC[C@@H]1C(N)=O)Cc1c[nH]c2ccccc12)NC(=O)[C@H]1CCC[C@@H]1NC(=O)[C@H]1CCC[C@@H]1N` [H12 KW]: the Kd on CaM is 51 µM; at S100A4, 456 µM; on S100B it was 39 µM; at Gal-1 it was 161 µM.

As for `CC[C@H](C)[C@@H](CC(=O)N[C@H]1CCC[C@@H]1C(=O)N[C@H]1CCC[C@@H]1C(=O)N[C@H](CC(=O)N[C@H]1CCC[C@@H]1C(=O)N[C@H]1CCC[C@@H]1C(N)=O)CC(C)C)NC(=O)[C@H]1CCC[C@@H]1NC(=O)[C@H]1CCC[C@@H]1N` [H12 IL], the Kd turned out to be 67 µM on CaM, 79 µM on S100A4, 25 µM at S100B and 395 µM on Gal-1.

As for `CC(C)C[C@@H](CC(=O)N[C@H]1CCC[C@@H]1C(=O)N[C@H]1CCC[C@@H]1C(N)=O)NC(=O)[C@H]1CCC[C@@H]1NC(=O)[C@H]1CCC[C@@H]1NC(=O)C[C@@H](NC(=O)[C@H]1CCC[C@@H]1NC(=O)[C@H]1CCC[C@@H]1N)C(C)C` [H12 VL], the Kd on CaM was found to be 164 µM; at S100A4, 190 µM; on S100B, 92 µM; at Gal-1, 469 µM.

For `CC[C@H](C)[C@@H](CC(=O)N[C@H]1CCC[C@@H]1C(=O)N[C@H]1CCC[C@@H]1C(N)=O)NC(=O)[C@H]1CCC[C@@H]1NC(=O)[C@H]1CCC[C@@H]1NC(=O)C[C@@H](NC(=O)[C@H]1CCC[C@@H]1NC(=O)[C@H]1CCC[C@@H]1N)[C@@H](C)CC` [H12 II], the Kd is 67 µM at CaM, 79 µM at S100A4, 25 µM at S100B and 395 µM at Gal-1.

With `CC[C@H](C)[C@@H](CC(=O)N[C@H]1CCC[C@@H]1C(=O)N[C@H]1CCC[C@@H]1C(=O)N[C@@H](CCSC)CC(=O)N[C@H]1CCC[C@@H]1C(=O)N[C@H]1CCC[C@@H]1C(N)=O)NC(=O)[C@H]1CCC[C@@H]1NC(=O)[C@H]1CCC[C@@H]1N` [H12 IM], the Kd at CaM was 211 µM; on S100A4, 381 µM; at S100B, 74 µM; at Gal-1, 378 µM.

Take `CSCC[C@@H](CC(=O)N[C@H]1CCC[C@@H]1C(=O)N[C@H]1CCC[C@@H]1C(=O)N[C@H](CC(=O)N[C@H]1CCC[C@@H]1C(=O)N[C@H]1CCC[C@@H]1C(N)=O)CC(C)C)NC(=O)[C@H]1CCC[C@@H]1NC(=O)[C@H]1CCC[C@@H]1N` [H12 ML]: the Kd on CaM was 98 µM; at S100A4, 245 µM; at S100B, 81 µM.

Regarding `CC(C)[C@@H](CC(=O)N[C@H]1CCC[C@@H]1C(=O)N[C@H]1CCC[C@@H]1C(N)=O)NC(=O)[C@H]1CCC[C@@H]1NC(=O)[C@H]1CCC[C@@H]1NC(=O)C[C@H](Cc1c[nH]c2ccccc12)NC(=O)[C@H]1CCC[C@@H]1NC(=O)[C@H]1CCC[C@@H]1N` [H12 WV], the Kd on CaM is 83 µM; at S100A4, 183 µM; at S100B it was 38 µM.

`CSCC[C@@H](CC(=O)N[C@H]1CCC[C@@H]1C(=O)N[C@H]1CCC[C@@H]1C(=O)N[C@H](CC(=O)N[C@H]1CCC[C@@H]1C(=O)N[C@H]1CCC[C@@H]1C(N)=O)Cc1ccccc1)NC(=O)[C@H]1CCC[C@@H]1NC(=O)[C@H]1CCC[C@@H]1N` [H12 MF]: the Kd on CaM stood at 74 µM; at S100A4, 303 µM; at S100B, 32 µM.
